From ChEMBL document CHEMBL3994643, “Synthesis and glucose-stimulate insulin secretion (GSIS) evaluation of vindoline derivatives” (Bioorg Med Chem Lett, 2017)

Tested on: MIN6
Assay: Induction of glucose-stimulated insulin secretion in mouse MIN6 cells after 2 hrs by ELISA
Assay type: functional, cell-based
Details: MIN6, 2 h

SMILES	EC50 [µM]
CC[C@]12C=CCN3CC[C@@]4(c5ccc(OC)cc5N(C)[C@H]4[C@@](O)(C(=O)OC)[C@@H]1OC(C)=O)[C@@H]32	50.2
CCCCO[C@@H]1[C@]2(CC)C=CCN3CC[C@@]4(c5ccc(OC)cc5N(C)[C@H]4[C@@]1(O)C(=O)OC)[C@@H]32	> 100
CCCOC[C@@]1(O)[C@H](OC(C)=O)[C@]2(CC)C=CCN3CC[C@@]4(c5ccc(OC)cc5N(C)[C@@H]14)[C@@H]32	41.5
CC[C@]12C=CCN3CC[C@@]4(c5ccc(OC)cc5N(C)[C@H]4[C@@](O)(COC)[C@@H]1OC(C)=O)[C@@H]32	41
CCC(=O)O[C@@H]1[C@]2(CC)C=CCN3CC[C@@]4(c5ccc(OC)cc5N(C)[C@H]4[C@@]1(O)C(=O)OC)[C@@H]32	32.6
CCO[C@@H]1[C@]2(CC)C=CCN3CC[C@@]4(c5ccc(OC)cc5N(C)[C@H]4[C@@]1(O)C(=O)OC)[C@@H]32	62.2
CCC(=O)NC[C@@]1(O)[C@H](OC(C)=O)[C@]2(CC)C=CCN3CC[C@@]4(c5ccc(OC)cc5N(C)[C@@H]14)[C@@H]32	12.7
CC[C@]12C=CCN3CC[C@@]4(c5ccc(OC)cc5N(C)[C@H]4[C@@](O)(CNC(=O)C(C)(C)C)[C@@H]1OC(C)=O)[C@@H]32	21
CC[C@]12CCCN3CC[C@@]4(c5ccc(OC)cc5N(C)[C@H]4[C@@](O)(C(=O)OC)[C@@H]1OC(=O)C(C)C)[C@@H]32	14.2
CC[C@]12C=CCN3CC[C@@]4(c5ccc(OC)cc5N(C)[C@H]4[C@@](O)(C(=O)OC)[C@@H]1O)[C@@H]32	> 100
CCCCOC[C@@]1(O)[C@H](OC(C)=O)[C@]2(CC)C=CCN3CC[C@@]4(c5ccc(OC)cc5N(C)[C@@H]14)[C@@H]32	> 100
CCCO[C@@H]1[C@]2(CC)C=CCN3CC[C@@]4(c5ccc(OC)cc5N(C)[C@H]4[C@@]1(O)C(=O)OC)[C@@H]32	64.3
CC[C@]12C=CCN3CC[C@@]4(c5ccc(OC)cc5N(C)[C@H]4[C@@](O)(C(=O)OC)[C@@H]1OC(=O)c1ccccc1)[C@@H]32	62.2
CC[C@]12C=CCN3CC[C@@]4(c5ccc(OC)cc5N(C)[C@H]4[C@@](O)(COC(=O)C(C)C)[C@@H]1OC(C)=O)[C@@H]32	> 100
CC[C@]12C=CCN3CC[C@@]4(c5ccc(OC)cc5N(C)[C@H]4[C@@](O)(C(=O)OC)[C@@H]1OC(=O)C(C)C)[C@@H]32	10.4
CCOC[C@@]1(O)[C@H](OC(C)=O)[C@]2(CC)C=CCN3CC[C@@]4(c5ccc(OC)cc5N(C)[C@@H]14)[C@@H]32	11
CC[C@]12C=CCN3CC[C@@]4(c5ccc(OC)cc5N(C)[C@H]4[C@@](O)(C(=O)OC)[C@@H]1OC(=O)C1CCCCC1)[C@@H]32	80.5
CC[C@]12C=CCN3CC[C@@]4(c5ccc(OC)cc5N(C)[C@H]4[C@@](O)(C(=O)OC)[C@@H]1OC)[C@@H]32	> 100
CCC(=O)NC[C@@]1(O)[C@H](OC(=O)C(C)C)[C@]2(CC)C=CCN3CC[C@@]4(c5ccc(OC)cc5N(C)[C@@H]14)[C@@H]32	18.5
CC[C@]12C=CCN3CC[C@@]4(c5ccc(OC)cc5N(C)[C@H]4[C@@](O)(CNC(C)=O)[C@@H]1OC(C)=O)[C@@H]32	19.3
CCC(=O)O[C@@H]1[C@]2(CC)CCCN3CC[C@@]4(c5ccc(OC)cc5N(C)[C@H]4[C@@]1(O)C(=O)OC)[C@@H]32	38.5
CCC(=O)OC[C@@]1(O)[C@H](OC(C)=O)[C@]2(CC)C=CCN3CC[C@@]4(c5ccc(OC)cc5N(C)[C@@H]14)[C@@H]32	51
CCOC[C@@]1(O)[C@H](OC(=O)C(C)C)[C@]2(CC)C=CCN3CC[C@@]4(c5ccc(OC)cc5N(C)[C@@H]14)[C@@H]32	14.2
